Source: US8101180B2, “Anti-IGF-IR and/or anti-insulin/IGF-I hybrid receptors antibodies and uses thereof” (Pierre Fabre Medicament, priority 2002, dated 2012)

Tests used:
A549 tumor = assay: A549 non-small cell lung tumor subcutaneous xenograft; assay type: in vivo, nude mice; details: RDV, SDV […], 4 i.p. injections 7 days apart; conjugates […] agent and 250 μg/dose antibody
Protocol: Navelbine is a chemotherapy compound indicated in non-small cell cancer of the lung and in metastatic cancer of the breast. […] For this study, 5·10^6 A549 cells were grafted subcutaneously on the right flank of the mouse. Five days after the cell graft, the tumors are measurable and the treatments with MAb and/or navelbine are commenced. The MAb dose is always 250 μg/dose/mouse, twice per week, intra-peritoneally. Concerning navelbine, it will be administered at the maximum dose tolerated by the mouse or 10 mg/kg, intraperitoneally. For this treatment three injections will be carried out at intervals of 7 days. During the coadministrations, the two products are mixed before injection.
For this study, nude mice are grafted s.c. with 5·10^6 A549 cells. Five days after the cell graft, the tumors are measured and a homogeneous batch of mice in terms of tumor volume is formed. Starting from this batch, groups of 6 mice are generated at random.
To do this, 5·10^6 A549 cells were implanted subcutaneously in nude mice. Five days after this implantation, the tumors were measured and groups of 6 mice were formed. […] This granule is essential to the establishment of any E2-dependent human tumor in this animal species.
These conjugates are administered according to the same modes as the groups given the chemotherapy compounds alone; • the animals of the control batch are given injections of PBS, administered according to the same frequency.
The weight of the mice and the tumor volume are evaluated twice a week. The tumor volumes are calculated according to the formula: ½ (length·width·height).

P388 murine leukemia = P388 murine leukemia grafted intravenously, survival (T/C); assay type: in vivo, CDF1 mice
Protocol: The compound is administered intraperitoneally in a single dose on day 1. The protocol for this test is described by Kruczynski A. et al., Cancer Chemotherapy and Pharmacology, 1998, volume 41, pages 437 to 447.
Conventionally, the in vivo activity of cytotoxic compounds is expressed by the T/C at a dose expressed in mg per kg. The T/C corresponds to the ratio, multiplied by 100, of the median of the survival time of the treated animals to the median of the survival time of the control animals.
The protocol for this test is described by Kruczynski A. et al., Cancer Chemotherapy and Pharmacology, 1998, volume 41, pages 437 to 447.
To do this, a total of 10^6 P388 murine leukemia cells were implanted i.v. in CDF1 mice on day 0. After randomization of the animals in cages for treatment with each alkaloid and control cages, the compounds were administered i.p. on day 1.
Conventionally, the in vivo activity of compounds is expressed by the increase in survival time. The survival time is expressed by the T/C at a dose expressed in mg per kg (mg/kg). The T/C corresponds to the ratio, multiplied by 100, of the median of the survival time of the treated animals to the median of the survival time of the control animals. In agreement with the standard criteria of the NCl, a T/C of 120 corresponds to a minimum level for concluding that activity is present.
A T/C below 75 expresses toxicity of the test compound at the dose administered.

MCF-7 cells [1] = assay: Apoptosis of MCF-7 cells (Annexin V-FITC/DAPI flow cytometry); assay type: cell-based, human; details: doxorubicin 2 μg/ml, 24 hours, IGF-I 50 ng/ml
Protocol: As indicated above, IGF-IR is capable of conferring protection against apoptosis when it is overexpressed on the surface of cells. […] In these experiments, the MCF-7 cells are inoculated at 2·10^4/cm^2 in Petri dishes and cultured for 24 h in RPMI without phenol red supplemented with 10% of fetal calf serum (FCS). The cells are then washed twice with PBS and put back into culture in medium with 0% FCS. They are allowed an adaptation time of 10 minutes at 37° C. before the addition of the antibodies at 10 μg/ml. After an extra 10 minutes at 37° C., recombinant IGF-I (Sigma) is added to the culture medium to a final concentration of 50 ng/ml. The cells are left at 37° C. again for one hour in order to allow the attachment of the antibodies and of the IGF-I. Finally, the doxorubicin (Sigma) is added to the culture medium at 2 μg/ml and the cells are incubated for 24 hours at 37° C.
The experiments have likewise been conducted with navelbine at a concentration of 10 μg/ml.
The analysis of the cell viability is carried out by flow cytometric analysis after labeling with the annexin V-FITC (20 minutes, 4° C.) and DAPI (2 μg/ml). The percentage of dead cells considered is the labeled population Annexin+/DAPI+. The antibody 5C2 is used as a control isotype.

MCF-7 cells [2] = assay: Cell cycle of MCF-7 cells with IGF1; assay type: cell-based, human
Protocol: The inhibition of the cell growth observed in vitro on the line MCF-7 should be manifested by an effect on the cell cycle. In order to reply to this question, 4·10^5 cells are inoculated into 6-well plates. […] After incubation for 24 hours, the cells are recovered for the study of the cell cycle.

[3] = dose 0.63 mg/kg i.p. single dose day 1, T/C = median survival treated/control ×100, below 75 = toxicity
[4] = dose 1.25 mg/kg i.p. single dose day 1
[5] = dose 5 mg/kg i.p. single dose day 1
[6] = dose 10 mg/kg i.p. single dose day 1
[7] = after addition of IGF1, 24 hours ([…] in the absence of IGF1)

Compound	A549 tumor growth, deoxyvinblastines alone or coupled to h7C10 (A549 tumor)	T/C (P388 murine leukemia; [3])	T/C (P388 murine leukemia; [4])	T/C (P388 murine leukemia; [5])	T/C (P388 murine leukemia; [6])	T/C (P388 murine leukemia; dose 20 mg/kg i.p. single dose day 1)	T/C (P388 murine leukemia; dose 40 mg/kg i.p. single dose day 1)	apoptosis, percentage of MCF-7 cells (MCF-7 cells [1]) [%]	proportion of MCF-7 cells in G2/M phase (MCF-7 cells [2]; after addition of IGF1, 24 hours (4% in the absence of IGF1)) [%]	proportion of MCF-7 cells in G0/G1 phase (MCF-7 cells [2]; [7]) [%]	proportion of MCF-7 cells in S phase (MCF-7 cells [2]; [7]) [%]
CCC1CC2CN(CCc3c([nH]c4ccccc34)[C@@](C(=O)OC)(c3cc4c(cc3OC)N(C)[C@H]3C(O)(C(=O)OC)[C@H](OC(C)=O)[C@]5(CC)C=CCN6CC[C@]43[C@@H]65)C2)C1 (stereo partly drawn) [4′-R-deoxyvinblastine, 4′-R deoxyvinblastine]	evolve in the same manner as the control group	100	100	143	200	214	43	–	–	–	–
CC[C@@H]1C[C@@H]2CN(CCc3c([nH]c4ccccc34)[C@@](C(=O)OC)(c3cc4c(cc3OC)N(C)[C@H]3[C@@](O)(C(=O)OC)[C@H](OC(C)=O)[C@]5(CC)C=CCN6CC[C@]43[C@@H]65)C2)C1 [4′-S-deoxyvinblastine, 4′-S deoxyvinblastine]	evolve in the same manner as the control group	114	143	100	57	–	–	–	–	–	–
COc1cccc2c1C(=O)c1c(O)c3c(c(O)c1C2=O)C[C@@](O)(C(=O)CO)C[C@@H]3O[C@H]1C[C@H](N)[C@H](O)[C@H](C)O1 [doxorubicin, reference compound]	–	–	–	–	–	–	–	8	–	–	–
CC[C@]1(O)C[C@@H]2CN(CCc3c([nH]c4ccccc34)[C@@](C(=O)OC)(c3cc4c(cc3OC)N(C)[C@H]3[C@@](O)(C(=O)OC)[C@H](OC(C)=O)[C@]5(CC)C=CCN6CC[C@]43[C@@H]65)C2)C1 [vinblastine, reference compound]	–	114	114	143	57	–	–	–	–	–	–
CC[C@]1(O)C[C@H]2CN(CCc3c([nH]c4ccccc34)[C@@](C(=O)OC)(c3cc4c(cc3OC)N(C=O)[C@H]3[C@@](O)(C(=O)OC)[C@H](OC(C)=O)[C@]5(CC)C=CCN6CC[C@]43[C@@H]65)C2)C1 [vincristine, reference compound]	–	114	143	100	57	–	–	–	–	–	–
IGF1: insulin-like growth factor 1, native ligand of IGF-IR	–	–	–	–	–	–	–	–	12.7	56.3	31
